pIC50: −log10 of the molar value.
Experiments:
[1] = Growth inhibition of human MDA-MB-175-VII cells incubated for 72 hrs by Cell-titer-Glo reagent based assay; format: functional
[2] = Growth inhibition of human EFM19 cells incubated for 72 hrs by Cell-titer-Glo reagent based assay; format: functional; conditions: EFM-19, 72 h
[3] = Growth inhibition of human RKO cells incubated for 72 hrs by Cell-titer-Glo reagent based assay; format: functional
[4] = Growth inhibition of human DLD1 cells incubated for 72 hrs by Cell-titer-Glo reagent based assay; format: functional; conditions: DLD-1, 72 h
[5] = Growth inhibition of human T84 cells incubated for 72 hrs by Cell-titer-Glo reagent based assay; format: functional; conditions: T84, 72 h
[6] = Growth inhibition of human KM12 cells incubated for 72 hrs by Cell-titer-Glo reagent based assay; format: functional; conditions: KM12, 72 h
[7] = Growth inhibition of human SW837 cells incubated for 72 hrs by Cell-titer-Glo reagent based assay; format: functional; conditions: SW837, 72 h
[8] = Growth inhibition of human LS1034 cells incubated for 72 hrs by Cell-titer-Glo reagent based assay; format: functional; conditions: LS-1034, 72 h
[9] = Growth inhibition of human COLO205 cells incubated for 72 hrs by Cell-titer-Glo reagent based assay; format: functional; conditions: COLO 205, 72 h
[10] = Growth inhibition of human SW1463 cells incubated for 72 hrs by Cell-titer-Glo reagent based assay; format: functional; conditions: SW1463, 72 h
[11] = Growth inhibition of human HT-29 cells incubated for 72 hrs by Cell-titer-Glo reagent based assay; format: functional; conditions: HT-29, 72 h
[12] = Growth inhibition of human SW480 cells incubated for 72 hrs by Cell-titer-Glo reagent based assay; format: functional; conditions: SW480, 72 h
[13] = Growth inhibition of human SW1417 cells incubated for 72 hrs by Cell-titer-Glo reagent based assay; format: functional; conditions: SW1417, 72 h
[14] = Growth inhibition of human A549 cells incubated for 72 hrs by Cell-titer-Glo reagent based assay; format: functional; conditions: A549, 72 h
[15] = Growth inhibition of human NCI-H1355 cells incubated for 72 hrs by Cell-titer-Glo reagent based assay; format: functional; conditions: NCI-H1355, 72 h
[16] = Growth inhibition of human NCI-H1792 cells incubated for 72 hrs by Cell-titer-Glo reagent based assay; format: functional; conditions: NCI-H1792, 72 h
[17] = Growth inhibition of human NCI-H23 cells incubated for 72 hrs by Cell-titer-Glo reagent based assay; format: functional; conditions: NCI-H23, 72 h
[18] = Growth inhibition of human MV522 cells incubated for 72 hrs by Cell-titer-Glo reagent based assay; format: functional; conditions: MV522, 72 h
[19] = Growth inhibition of human NCI-H1155 cells incubated for 72 hrs by Cell-titer-Glo reagent based assay; format: functional; conditions: NCI-H1155, 72 h
[20] = Growth inhibition of human SW1573 cells incubated for 72 hrs by Cell-titer-Glo reagent based assay; format: functional; conditions: SW1573, 72 h
[21] = Growth inhibition of human HOP62 cells incubated for 72 hrs by Cell-titer-Glo reagent based assay; format: functional; conditions: HOP-62, 72 h
[22] = Growth inhibition of human SW900 cells incubated for 72 hrs by Cell-titer-Glo reagent based assay; format: functional; conditions: SW900, 72 h
[23] = Growth inhibition of human A427 cells incubated for 72 hrs by Cell-titer-Glo reagent based assay; format: functional; conditions: A-427, 72 h
[24] = Growth inhibition of human HCC827 cells incubated for 72 hrs by Cell-titer-Glo reagent based assay; format: functional; conditions: HCC827, 72 h
[25] = Growth inhibition of human Calu3 cells incubated for 72 hrs by Cell-titer-Glo reagent based assay; format: functional; conditions: Calu-3, 72 h
[26] = Growth inhibition of human NCI-H727 cells incubated for 72 hrs by Cell-titer-Glo reagent based assay; format: functional; conditions: NCI-H727, 72 h
[27] = Growth inhibition of human DLD1 cells at 1:10 molar ratio of compound in presence of N-{3-[3-cyclopropyl-5-(2-fluoro-4-iodo-phenylamino)-6,8-dimethyl- 2,4,7-trioxo-3,4,6,7-tetrahydro-2H-pyrido[4,3-d]pyrimidin-1-yl]phenyl}acetamide incubated for 72 hrs by Cell-titer-Glo reagent based assay; format: functional; conditions: DLD-1, 72 h
[28] = Growth inhibition of human HT-29 cells assessed combination index at 1:10 molar ratio of compound in presence of N-{3-[3-cyclopropyl-5-(2-fluoro-4-iodo-phenylamino)-6,8-dimethyl- 2,4,7-trioxo-3,4,6,7-tetrahydro-2H-pyrido[4,3-d]pyrimidin-1-yl]phenyl}acetamide incubated for 72 hrs by Cell-titer-Glo reagent based assay; format: functional
[29] = Growth inhibition of human EFM19 cells at 1:10 molar ratio of compound in presence of N-{(1S)-2-amino-1-[(3-fluorophenyl)methyl]ethyl}-5-chloro-4-(4-chloro-1-methyl-1H-pyrazol-5-yl)-2-thiophenecar- boxamide incubated for 72 hrs by Cell-titer-Glo reagent based assay; format: functional; conditions: EFM-19, 72 h
[30] = Growth inhibition of human T84 cells at 1:10 molar ratio of compound in presence of N-{(1S)-2-amino-1-[(3-fluorophenyl)methyl]ethyl}-5-chloro-4-(4-chloro-1-methyl-1H-pyrazol-5-yl)-2-thiophenecar- boxamide incubated for 72 hrs by Cell-titer-Glo reagent based assay; format: functional; conditions: T84, 72 h
[31] = Growth inhibition of human HT-29 cells at 1:10 molar ratio of compound in presence of N-{(1S)-2-amino-1-[(3-fluorophenyl)methyl]ethyl}-5-chloro-4-(4-chloro-1-methyl-1H-pyrazol-5-yl)-2-thiophenecar- boxamide incubated for 72 hrs by Cell-titer-Glo reagent based assay; format: functional; conditions: HT-29, 72 h
[32] = Growth inhibition of human SW900 cells at 1:10 molar ratio of compound in presence of N-{(1S)-2-amino-1-[(3-fluorophenyl)methyl]ethyl}-5-chloro-4-(4-chloro-1-methyl-1H-pyrazol-5-yl)-2-thiophenecar- boxamide incubated for 72 hrs by Cell-titer-Glo reagent based assay; format: functional; conditions: SW900, 72 h
[33] = Growth inhibition of human HCC827 cells at 1:10 molar ratio of compound in presence of N-{(1S)-2-amino-1-[(3-fluorophenyl)methyl]ethyl}-5-chloro-4-(4-chloro-1-methyl-1H-pyrazol-5-yl)-2-thiophenecar- boxamide incubated for 72 hrs by Cell-titer-Glo reagent based assay; format: functional; conditions: HCC827, 72 h
[34] = Growth inhibition of human MDA-MB-175-VII cells assessed combination index at 1:10 molar ratio of compound in presence of N-{(1S)-2-amino-1-[(3-fluorophenyl)methyl]ethyl}-5-chloro-4-(4-chloro-1-methyl-1H-pyrazol-5-yl)-2-thiophenecar- boxamide incubated for 72 hrs by Cell-titer-Glo reagent based assay; format: functional
[35] = Growth inhibition of human COLO205 cells assessed combination index at 1:10 molar ratio of compound in presence of N-{(1S)-2-amino-1-[(3-fluorophenyl)methyl]ethyl}-5-chloro-4-(4-chloro-1-methyl-1H-pyrazol-5-yl)-2-thiophenecar- boxamide incubated for 72 hrs by Cell-titer-Glo reagent based assay; format: functional, COLO 205
[36] = Growth inhibition of human Calu6 cells assessed combination index at 1:10 molar ratio of compound in presence of N-{(1S)-2-amino-1-[(3-fluorophenyl)methyl]ethyl}-5-chloro-4-(4-chloro-1-methyl-1H-pyrazol-5-yl)-2-thiophenecar- boxamide incubated for 72 hrs by Cell-titer-Glo reagent based assay; format: functional, Calu-6

Row | SMILES | pIC50 [1] | pIC50 [2] | pIC50 [3] | pIC50 [4] | pIC50 [5] | pIC50 [6] | pIC50 [7] | pIC50 [8] | pIC50 [9] | pIC50 [10] | pIC50 [11] | pIC50 [12] | pIC50 [13] | pIC50 [14] | pIC50 [15] | pIC50 [16] | pIC50 [17] | pIC50 [18] | pIC50 [19] | pIC50 [20] | also measured
1 | Cn1ncc(Cl)c1-c1cc(C(=O)N[C@H](CN)Cc2cccc(F)c2)sc1Cl [AFURESERTIB] | 6.10 | 6.37 | 5.74 | < 5.00 | < 5.00 | 5.65 | < 5.00 | 5.36 | 5.59 | 5.01 | 5.86 | < 5.00 | < 5.00 | 5.22 | 5.17 | 5.14 | 5.15 | 5.52 | 6.06 | < 5.10 | pIC50 [21]: < 5.00; pIC50 [22]: < 5.00; pIC50 [23]: < 5.10; pIC50 [24]: < 5.10; pIC50 [25]: < 5.10; pIC50 [26]: 5.32; pIC50 [27]: 6.03; CI [28]: 0.95
2 | CC(=O)Nc1cccc(-n2c(=O)n(C3CC3)c(=O)c3c(Nc4ccc(I)cc4F)n(C)c(=O)c(C)c32)c1 [TRAMETINIB] | 7.02 | < 6.00 | 7.74 | 6.20 | 7.21 | 7.64 | 7.13 | 8.30 | 9.00 | 8.40 | 8.70 | 7.43 | 8.52 | 7.47 | 7.28 | 7.28 | 7.54 | 8.70 | < 6.00 | < 6.00 | pIC50 [21]: < 6.00; pIC50 [22]: 6.90; pIC50 [23]: 7.66; pIC50 [24]: < 6.00; pIC50 [25]: 6.80; pIC50 [26]: 8.70; pIC50 [29]: 7.52; pIC50 [30]: 7.52; pIC50 [31]: 9.00; pIC50 [32]: 7.14; pIC50 [33]: 7.40; CI [34]: 0.39; CI [35]: 0.88; CI [36]: 0.79
